Holding throughout (type): cell-based
In one assay the target is T1, Orco (AgORco) (Anopheles gambiae, UniProt Q7QCC7).
T1 construct: expressed in transfected cells
T1 sequence (Q7QCC7 1-478): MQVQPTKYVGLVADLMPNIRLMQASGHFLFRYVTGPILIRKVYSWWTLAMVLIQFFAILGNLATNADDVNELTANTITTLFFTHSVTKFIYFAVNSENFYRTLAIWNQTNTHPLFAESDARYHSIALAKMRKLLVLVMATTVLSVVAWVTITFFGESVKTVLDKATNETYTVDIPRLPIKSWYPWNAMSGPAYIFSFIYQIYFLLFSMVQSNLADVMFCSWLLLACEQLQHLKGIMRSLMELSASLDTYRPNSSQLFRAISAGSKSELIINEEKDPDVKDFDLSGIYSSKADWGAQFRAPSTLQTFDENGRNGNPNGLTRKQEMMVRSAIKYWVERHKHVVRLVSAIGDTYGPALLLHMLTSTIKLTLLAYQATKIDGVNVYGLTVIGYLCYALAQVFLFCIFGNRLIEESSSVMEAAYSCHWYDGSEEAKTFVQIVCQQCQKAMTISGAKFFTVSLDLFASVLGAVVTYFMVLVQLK
The assay can be described thus: Fluo-4 Ca2+ imaging, HEK293 cells expressing Orco alone. The following applies: for Emax: HEK293, read-out: Orco Agonist % value Of VUAA1. An excerpt:
(§1) For transient transfections, ORs were cloned into pCl (Promega) and transfected into Flp-In™ T-REx™293 cell lines (Invitrogen) with Fu GENE6 (Roche). For the creation of stable cell lines, a cell culture expression vector capable of expressing Orco in conjunction with a conventional OR, pcDNA5/FRT/TO (Invitrogen) was modified to create two individual expression cassettes each under the control of a separate CMV/Tet02 promoter and a BGH poly-adenylation signal. Cells (as above) were transfected with the modified pcDNA5 plasmid along with POG44 (a Flp recombinase expression plasmid) to facilitate site-specific recombination. Stable cell lines were selected using Hygromycin B (Invitrogen). Cells were maintained in DMEM (Invitrogen) supplemented with 10% Tetracycline-free FBS (HyClone) and 15 ng/ml Blasticidin. For fluorometric Ca2+ measurements, stable lines expressing ORs of interest were seeded at 20,000 cells/well in black wall, poly-lysine coated 384-well cell culture plates (Greiner) and treated with […] tetracycline (Sigma) overnight to induce OR expression. Cells were dye-loaded with 1.8 uM Fluo-4 AM (Molecular Probes), 2.5 mM Probenecid (Molecular Probes) in assay buffer (20 mM HEPES, IX HBSS) for 45 minutes at 37° C. in 5% CO2 prior to each assay. Ca^2+ mobilization was assayed in an FDSS6000 (Hamamatsu). Baseline readings were taken for 20 s before automated addition of compound previously diluted in DMSO and assay buffer. Ratios were described as Maximum/Minimum response and each response was normalized to the maximum responder.

The target of another assay is T2, AgORco+AgOR10 (Anopheles gambiae, UniProt Q7QCC7).
T2 construct: expressed in transfected cells
T2 sequence (Q7QCC7 1-478): T1 sequence (Q7QCC7 1-478)
In words: Fluo-4 Ca2+ imaging, HEK293 cells expressing Orco+AgOR10. Also noted: Orco 10 + Orco Angatonist % Reduction / Orco 10 + Orco Agonist % of control: concentration or dose not given beside the values. The following applies: 10 + Orco; for Orco 10 + Orco Agonist, compared with VUAA1: qualitative, relative to VUAA1.
Text: as §1
As part of an ongoing, cell based calcium imaging screen for novel small-molecule modulators of AgORs that might disrupt olfactory-driven mosquito behaviors (Rinker et al manuscript in preparation), the inventors identified a number of compounds that activated AgOR10+AgORco-expressing human embryonic kidney (HEK293) cells. One of these compounds, (FIG. 3 A) denoted here as VUAA1, elicited activity consistent with allosteric agonism and was pursued for its novel properties. The identity of VUAA1 was verified using high-resolution mass spectrometry (HRMS) as well as ^1H and ^13C NMR. […] As AgORco was the common element among these functional responses, the inventors postulated that VUAA1 was a potential AgORco agonist.

Another assay deals with T3, AgOrco+AgOR65 (Anopheles gambiae, UniProt Q7QCC7).
T3 construct: expressed in transfected cells
T3 sequence (Q7QCC7 1-478): T1 sequence (Q7QCC7 1-478)
In words: Ca2+ imaging, HEK cells expressing AgOrco+AgOR65.
Text: as §1
For VUAA0, a single methyl from the para position of the aniline ring (compound VUAA0, FIG. 44) in the VUAA1 structure was removed. […] In VUAA0.5, unsaturation was introduced at the para position of the aniline ring (VUAA0.5, FIG. 44). […] In VUAA2, the ethyl group of the aniline ring in VUAA1 was replaced with an isopropyl group (VUAA2, FIG. 44).

The next assay has as its target T4, AgORco+AgOR48 (Anopheles gambiae, UniProt Q7QCC7).
T4 construct: expressed in transfected cells
T4 sequence (Q7QCC7 1-478): T1 sequence (Q7QCC7 1-478)
The assay can be described thus: Ca2+ imaging, HEK cells expressing AgORco+AgOR48. The following applies: for Orco + 48 Agonist % value Of VUAA1: relative to VUAA1; for Orco + 48 Agonist EC50 (relative to VUAA1): stated in words relative to VUAA1.
Text: as §1
The ability of VUAA1 and its analogs to agonize representative ORco proteins from dipteran (Anopheles gambiae, AgORco), lepidopteran (Heliothis virescens, HvORco) and hymenopteran (Harpegnathos saltator, HsORco) orders was tested. […] Furthermore, the hierarchy of VUAA series potency was the same, irrespective of whether AgORco was co-expressed with AgOR65 or AgOR48 tuning ORs (FIG. 45). Without wishing to be bound by a particular theory, odorant ligands are thought to activate the complex via interaction with the tuning ORx and thereby affect ORco/ORx channel properties. […] These findings indicate VUAA-class OR co-modulators are viable compounds for further development as broad-spectrum insect control strategies, and VUAA4 can provide an advance in the pharmacological profile of VUAA-based compounds.

The mark [1] stands for this setting: Orco + 65, read-out: Orco + 65 Agonist EC50.
Setting [2] is: Orco + 48, read-out: Orco + 48 Agonist EC50.
Setting [3] is: Orco alone, read-out: Orco Agonist EC50.
Setting [4] is: Orco + 48, agonist, read-out: Orco + 48 Agonist EC50.

These results are taken from patent publication US11484032B2, “Compositions for inhibition of insect sensing” (Vanderbilt University, priority 2011, dated 2022).

As a reminder, the EC50 is the concentration at which the effect is half-maximal.

Each structure is given as a SMILES string. Like-named read-outs stand apart in the source and are kept apart here.

For `CCc1ccc(NC(=O)CSc2nnc(-c3cccnc3)n2CC)cc1` [drawing 373], the Emax on Orco (AgORco) stood at 100%. Further, on AgORco+AgOR10 (agonist mode), the “Orco 10 + Orco Agonist % of control” value amounted to 101.8%. Further, the EC50 on AgOrco+AgOR65 (setting [1]) turned out to be 47 µM; at AgORco+AgOR48 (setting [2]), 14 µM. For the same compound, the “Orco + 65 Agonist % value Of VUAA1” value on AgOrco+AgOR65 (Orco + 65, relative to VUAA1) turned out to be 100%. The “Orco + 48 Agonist % value Of VUAA1” value on AgORco+AgOR48 (Orco + 48) was found to be 100%.

For the compound `CCc1ccc2c(c1)CCN2C(=O)CSc1nnc(-c2cccnc2)n1CC`, on Orco (AgORco), the Emax turned out to be 121%. Also, the concentration giving a half-maximal response (EC50) was 35 µM on Orco (AgORco) (setting [3]) and 12.8 µM at AgORco+AgOR48 (setting [2]). Moreover, the “Orco 10 + Orco Agonist, compared with VUAA1” value at AgORco+AgOR10 (agonist mode) is given as “>VUAA1”.

For `O=C(CSc1nnc(-c2ccncc2)n1C1CC1)Nc1ccc(Br)cc1F`, at AgORco+AgOR48 (Orco + 48, agonist), the “Orco + 48 Agonist % value Of VUAA1” value is on record as “<VUAA1” and the “Orco + 48 Agonist EC50 (relative to VUAA1)” value is “<VUAA1”.

Turning to `CCn1c(SCC(=O)Nc2ccc(C(C)C)cc2)nnc1-c1ccnc(F)c1`, the Emax on Orco (AgORco) amounted to 38%. Moreover, the EC50 turned out to be 100 µM at Orco (AgORco) (setting [3]) and 75.2 µM at AgORco+AgOR48 (setting [2]). Besides, the “Orco + 48 Agonist % value Of VUAA1” value on AgORco+AgOR48 (Orco + 48) was found to be 62%.

With `C=CCc1ccc(O)c(OC)c1` [eugenol, reference compound], on AgOrco+AgOR65 (heteromeric OR channels AgOrco+AgOR65, read-out: EC50), the concentration giving a half-maximal response (EC50) came to 0.5 µM.

Take `CC(C)c1ccc(NC(=O)CSc2nnc(-c3ccncc3)n2C2CC2)cc1` [drawing 634]: the concentration for a half-maximal effect (EC50) at Orco (AgORco) (Orco alone, agonist) stood at 3.5 µM; on AgOrco+AgOR65 (Orco + 65, agonist, read-out: Orco + 65 Agonist EC50), 3.1 µM; at AgORco+AgOR48 (setting [4]), 1.9 µM. In addition, the “Orco + 48 Agonist % value Of VUAA1” value at AgORco+AgOR48 (Orco + 48, agonist) amounted to 122%.

Consider `CCc1ccc(NC(=O)CSc2nnc(-c3ccncc3)n2C2CC2)cc1`, for which the EC50 on AgORco+AgOR48 (setting [4]) was found to be 13 µM.

As for `CCCc1ccc(NC(=O)CSc2nnc(-c3ccncc3)n2C2CC2)cc1`, on AgORco+AgOR48 (Orco + 48, agonist), the “Orco + 48 Agonist % value Of VUAA1” value is listed as “<VUAA1” and the “Orco + 48 Agonist EC50 (relative to VUAA1)” value is given as “<VUAA1”.

For `CCn1c(SCC(=O)Nc2ccc(C(C)C)cc2)nnc1-c1cc[nH]n1`, at Orco (AgORco) (Orco alone, agonist, relative to VUAA1), the “Orco Agonist % value Of VUAA1” value is reported as “<VUAA1”. The “Orco Agonist EC50 (relative to VUAA1)” value on Orco (AgORco) (Orco alone, agonist, stated in words relative to VUAA1) is reported as “<VUAA1”.

Take `CCn1c(SCC(=O)Nc2ccc(C)cc2)nnc1-c1cccnc1` [drawing 372]: the figures for the EC50 at Orco (AgORco) (setting [3]), on AgOrco+AgOR65 (setting [1]) and on AgORco+AgOR48 (setting [2]) were 262 µM, 335 µM and 996 µM, respectively.

As to `CCCc1ccc(NC(=O)CSc2nnc(-c3cccnc3)n2CC)cc1`, the Emax at Orco (AgORco) came out at 87%. Also, the EC50 turned out to be 63 µM at Orco (AgORco) (setting [3]) and 19.8 µM on AgORco+AgOR48 (setting [2]). The “Orco 10 + Orco Agonist, compared with VUAA1” value at AgORco+AgOR10 (agonist mode) is “<VUAA1”.

Regarding `CCn1c(SCC(=O)N2CCc3cc(Br)ccc32)nnc1-c1cccnc1`, at Orco (AgORco), the Emax turned out to be 59%. Further, the EC50 at Orco (AgORco) (setting [3]) worked out at 55 µM. For the same compound, at AgORco+AgOR10 (agonist mode), the “Orco 10 + Orco Agonist, compared with VUAA1” value was “>VUAA1”. In addition, the “Orco 10 + Orco Angatonist % Reduction” value at AgORco+AgOR10 (antagonist mode) stood at 59%.

Turning to `CCCCCCC1CCCC(=O)O1` [D-undecalactone, reference compound], the concentration for a half-maximal effect (EC50) at AgORco+AgOR48 (AgORco co-expressed with AgOR48, read-out: EC50) came to 0.26 µM.

Regarding `CCn1c(SCC(=O)Nc2ccc(C(C)C)cc2)nnc1-c1cncs1`, the 50% effective concentration (EC50) at AgORco+AgOR48 (setting [4]) was 16.8 µM.
